# Calls of active or inactive are those of the source. The calls are words filed in the database; no cut-off is given here.
# Assays:
# [1] = system: Vero; assay: Cytotoxicity against african green monkey Vero cells at 250 ug/ml; assay type: cell-based; details: chlorocebus sabaeus
# [2] = system: Human alphaherpesvirus 1; assay: Antiviral activity against HSV1 infected in african green monkey Vero cells assessed as suppression of plaque formation at 40 ug/ml by plaque-reduction assay; assay type: functional, organism-based
smiles,measurement,setting,value
O=c1c(O[C@@H]2O[C@H](CO)[C@@H](O)[C@H](O)[C@H]2O)c(-c2ccc(O)c(O)c2)oc2cc(O)cc(O)c12 [ISOQUERCETIN],Activity,[1],Toxic
same,Activity,[2],Active

# From ChEMBL document CHEMBL1150049, “Isolation and characterization of an antiviral flavonoid from Waldsteinia fragarioides” (J Nat Prod, 1992)
